Test results reported in patent US20230278984A1 (Global Blood Therapeutics, Inc., priority 2020, published 2023).

Target: T1, Human pyruvate kinase R (PKR) (Homo sapiens, UniProt P30613)
T1 construct: Human pyruvate kinase R (PKR), residues 14-574; 6x-His (N, cleaved yes); 8x-Arg (N, cleaved yes); SUMO (N, cleaved yes); host or cells: E. coli
Assay: Biochemical assay for activation of pyruvate kinase R (Kinase-Glo luminescence measurement of ATP generation)
Conditions: for AC50: PKR biochemical assay, 0.1 nM PKR, 0.3 mM ADP, 2 mM FBP, 0.1 mM PEP; for Emax: maximal activation level relative to the activation level achieved by the literature compound AG-348 @ 10 μM
Experimental: Human pyruvate kinase R (PKR), residues 14-574, and human pyruvate kinase M2, residues 1-531, were cloned into expression plasmids and obtained from ATUM Bio (Newark, Calif.). Proteins were translated as fusions with 6×-His, 8×-Arg, and SUMO at the N-terminus. A third construct of human PKR was truncated, residues 50-574, and similarly cloned for use in crystallography experiments. All proteins were cloned, expressed in E. coli, and purified using similar protocols. Cells were grown at 30° C. in Luria-Bertani broth supplemented with 0.4% glucose to OD600=0.8 and induced with 0.4 mM IPTG at 16° C. for 18 hours. Cells were harvested by centrifugation, resuspended in 50 mM potassium phosphate pH 8.0, 500 mM NaCl, 25 mM imidazole pH 8.0, and 3 mM (3-mercaptoethanol. Cells were lysed using a LM20 microfluidizer from Microfluidics (Westwood, Mass.). The crude lysate was immediately supplemented with 0.2 mM phenylmethylsulfonyl fluoride (PMSF) and centrifuged at 20,000 g for 20 minutes. The soluble fraction was subsequently incubated with 2 mL Ni-NTA (GE Healthcare) per 1,000 ODs for 1 hour at 4° C. Following incubation with the Ni-NTA resin, lysate was removed by pelleting resin at 2,500 g for 3 minutes and washed 3 times with 9 bed volumes of 50 mM potassium phosphate pH 8.0, 500 mM NaCl, 25 mM imidazole, and 3 mM 3-mercaptoethanol. Following the batch wash Ni-NTA resin was loaded onto a gravity column and His-tagged protein was eluted with 6 bed volumes of 10 mM Tris/HCl pH 8.0, 200 mM NaCl, 500 mM imidazole, and 3 mM (3-mercaptoethanol. Eluted protein was dialyzed overnight against 10 mM Tris/HCl pH 8.0, 200 mM NaCl, and 1 mM DTT and the 6×-His-8×-Arg-SUMO-tag was cleaved using a 20:1 molar ratio of protein:3C protease. The protein was purified by anion exchange chromatography on a HiTrapQ or MonoQ 10/100 GL column (GE Healthcare) via a linear NaCl gradient and twice by size exclusion chromatography using a Superdex S200 26/60 column (GE Healthcare) run in 10 mM Tris/HCl pH 8.0, 200 mM NaCl, 10 mM MgCl2, 1 mM DTT. Proteins were concentrated to −12 mg/mL for crystallization and flash frozen for storage.
Biochemical Assay for Activation of Pyruvate Kinase R
Activation of pyruvate kinase R (PKR) and pyruvate kinase M2 (PKM2) were measured using a luminescence based measurement of ATP generation and the Kinase-Glo luminescent kinase reagent kit.

T1 sequence (P30613 14-574): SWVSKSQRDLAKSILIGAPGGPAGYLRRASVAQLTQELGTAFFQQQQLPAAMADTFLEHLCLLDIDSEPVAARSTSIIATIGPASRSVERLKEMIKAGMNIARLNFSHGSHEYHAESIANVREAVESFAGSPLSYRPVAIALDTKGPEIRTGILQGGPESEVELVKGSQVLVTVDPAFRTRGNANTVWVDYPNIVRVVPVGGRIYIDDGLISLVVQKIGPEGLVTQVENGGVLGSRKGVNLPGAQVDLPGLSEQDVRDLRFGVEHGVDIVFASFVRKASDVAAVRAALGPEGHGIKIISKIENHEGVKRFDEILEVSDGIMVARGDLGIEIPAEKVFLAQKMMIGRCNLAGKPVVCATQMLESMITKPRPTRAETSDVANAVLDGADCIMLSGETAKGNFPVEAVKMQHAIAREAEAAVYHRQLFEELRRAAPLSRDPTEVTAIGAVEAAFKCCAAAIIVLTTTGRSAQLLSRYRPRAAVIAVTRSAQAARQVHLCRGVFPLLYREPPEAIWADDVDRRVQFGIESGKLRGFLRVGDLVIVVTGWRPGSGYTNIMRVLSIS

SMILES	AC50 [nM]	Emax [%]
CN(Cc1ncnn1-c1ccc(Cl)c(F)c1)C(=O)N(C)Cc1ncnn1-c1ccc(Cl)c(F)c1 [Compound 28, 1,3-bis({[1-(4-chloro-3-fluorophenyl)-1H-1,2,4-triazol-5-yl]methyl})-1,3-dimethylurea]	1200	29
Cc1ccc2ccc(-n3ncnc3CNC(=O)NCc3nc(C)nn3-c3ccc(Cl)c(F)c3)cc2n1 [Compound 29, 3-{[1-(4-chloro-3-fluorophenyl)-3-methyl-1H-1,2,4-triazol-5-yl]methyl}-1-{[1-(2-methylquinolin-7-yl)-1H-1,2,4-triazol-5-yl]methyl}urea]	110	78
CCN(Cc1ncnn1-c1ccc(Cl)c(F)c1)C(=O)NCc1ncnn1-c1ccc(Cl)c(F)c1 [Compound 30, 1,3-bis({[1-(4-chloro-3-fluorophenyl)-1H-1,2,4-triazol-5-yl]methyl})-1-ethylurea]	18	48
O=C(NCc1ncnn1-c1ccc(Cl)c(F)c1)NCc1nnnn1-c1ccc(Cl)c(F)c1 [Compound 31, 3-{[1-(4-chloro-3-fluorophenyl)-1H-1,2,3,4-tetrazol-5-yl]methyl}-1-{[1-(4-chloro-3-fluorophenyl)-1H-1,2,4-triazol-5-yl]methyl}urea]	14	76
CN(Cc1nnnn1-c1ccc(Cl)c(F)c1)C(=O)NCc1ncnn1-c1ccc(Cl)c(F)c1 [Compound 32, 1-{[1-(4-chloro-3-fluorophenyl)-1H-1,2,3,4-tetrazol-5-yl]methyl}-3-{[1-(4-chloro-3-fluorophenyl)-1H-1,2,4-triazol-5-yl]methyl}-1-methylurea]	210	74
CN(Cc1ncnn1-c1ccc(Cl)c(F)c1)C(=O)NCc1nnnn1-c1ccc(Cl)c(F)c1 [Compound 33, 1-{[1-(4-chloro-3-fluorophenyl)-1H-1,2,3,4-tetrazol-5-yl]methyl}-3-{[1-(4-chloro-3-fluorophenyl)-1H-1,2,4-triazol-5-yl]methyl}-3-methylurea]	9	67
O=C(NCc1ncnn1-c1ccc(Cl)c(F)c1)N(CCO)Cc1nnnn1-c1ccc(Cl)c(F)c1 [Compound 34, 1-{[1-(4-chloro-3-fluorophenyl)-1H-1,2,3,4-tetrazol-5-yl]methyl}-3-{[1-(4-chloro-3-fluorophenyl)-1H-1,2,4-triazol-5-yl]methyl}-1-(2-hydroxyethyl)urea]	830	89
O=C(NCc1ncnn1-c1ccc(Cl)c(F)c1)NCc1ncnn1-c1nc2cc(Cl)ccc2s1 [Compound 35, 1-{[1-(5-chloro-1,3-benzothiazol-2-yl)-1H-1,2,4-triazol-5-yl]methyl}-3-{[1-(4-chloro-3-fluorophenyl)-1H-1,2,4-triazol-5-yl]methyl}urea]	3200	28
CCN(Cc1ncnn1-c1ccc(Cl)c(F)c1)C(=O)NCc1nnnn1-c1ccc(Cl)c(F)c1 [Compound 36, 3-{[1-(4-chloro-3-fluorophenyl)-1H-1,2,3,4-tetrazol-5-yl]methyl}-1-{[1-(4-chloro-3-fluorophenyl)-1H-1,2,4-triazol-5-yl]methyl}-1-ethylurea]	130	95
O=C(NCc1ncnn1-c1ccc(Cl)c(F)c1)N(CCF)Cc1ncnn1-c1ccc(Cl)c(F)c1 [Compound 38, 1,3-bis({[1-(4-chloro-3-fluorophenyl)-1H-1,2,4-triazol-5-yl]methyl})-1-(2-fluoroethyl)urea]	55	53
Cc1nc(CNC(=O)NCc2ncnn2-c2ccc3ccncc3c2)n(-c2ccc(Cl)c(F)c2)n1 [Compound 39, 3-{[1-(4-chloro-3-fluorophenyl)-3-methyl-1H-1,2,4-triazol-5-yl]methyl}-1-{[1-(isoquinolin-7-yl)-1H-1,2,4-triazol-5-yl]methyl}urea]	51	63
Cc1nc(CNC(=O)NCc2ncnn2-c2ccc3nccnc3c2)n(-c2ccc(Cl)c(F)c2)n1 [Compound 40, 3-{[1-(4-chloro-3-fluorophenyl)-3-methyl-1H-1,2,4-triazol-5-yl]methyl}-1-{[1-(quinoxalin-6-yl)-1H-1,2,4-triazol-5-yl]methyl}urea]	150	73
Cc1nc(CNC(=O)NCc2ncnn2-c2ccc3ncccc3c2)n(-c2ccc(Cl)c(F)c2)n1 [Compound 41, 1-{[1-(4-chloro-3-fluorophenyl)-3-methyl-1H-1,2,4-triazol-5-yl]methyl}-3-{[1-(quinolin-6-yl)-1H-1,2,4-triazol-5-yl]methyl}urea]	40	81
CC(C)c1nc(CNC(=O)NCc2ncnn2-c2ccc3cccnc3c2)n(-c2ccc(Cl)c(F)c2)n1 [Compound 42, 1-{[1-(4-chloro-3-fluorophenyl)-3-(propan-2-yl)-1H-1,2,4-triazol-5-yl]methyl}-3-{[1-(quinolin-7-yl)-1H-1,2,4-triazol-5-yl]methyl}urea]	540	74
Cc1nc(CNC(=O)NCc2ncnn2-c2cnc3cccnc3c2)n(-c2ccc(Cl)c(F)c2)n1 [Compound 43, 1-{[1-(4-chloro-3-fluorophenyl)-3-methyl-1H-1,2,4-triazol-5-yl]methyl}-3-{[1-(1,5-naphthyridin-3-yl)-1H-1,2,4-triazol-5-yl]methyl}urea]	100	84
Cc1nc(CNC(=O)NCc2ncnn2-c2ccc3c(c2)ncn3C)n(-c2ccc(Cl)c(F)c2)n1 [Compound 44, 1-{[1-(4-chloro-3-fluorophenyl)-3-methyl-1H-1,2,4-triazol-5-yl]methyl}-3-{[1-(1-methyl-1H-1,3-benzodiazol-5-yl)-1H-1,2,4-triazol-5-yl]methyl}urea]	81	94
CCc1nc(CNC(=O)NCc2ncnn2-c2ccc3cccnc3c2)n(-c2ccc(Cl)c(F)c2)n1 [Compound 45, 1-{[1-(4-chloro-3-fluorophenyl)-3-ethyl-1H-1,2,4-triazol-5-yl]methyl}-3-{[1-(quinolin-7-yl)-1H-1,2,4-triazol-5-yl]methyl}urea]	110	80
Cc1nc(CNC(=O)NCc2ncnn2-c2ccc3ncc(F)cc3c2)n(-c2ccc(Cl)c(F)c2)n1 [Compound 46, 3-{[1-(4-chloro-3-fluorophenyl)-3-methyl-1H-1,2,4-triazol-5-yl]methyl}-1-{[1-(3-fluoroquinolin-6-yl)-1H-1,2,4-triazol-5-yl]methyl}urea]	38	74
Cc1nc(CNC(=O)NCc2ncnn2-c2cc(F)c3cccnc3c2)n(-c2ccc(Cl)c(F)c2)n1 [Compound 47, 1-{[1-(4-chloro-3-fluorophenyl)-3-methyl-1H-1,2,4-triazol-5-yl]methyl}-3-{[1-(5-fluoroquinolin-7-yl)-1H-1,2,4-triazol-5-yl]methyl}urea]	42	85
Cc1nc(CNC(=O)NCc2ncnn2-c2ccc3cc(F)cnc3c2)n(-c2ccc(Cl)c(F)c2)n1 [Compound 48, 1-{[1-(4-chloro-3-fluorophenyl)-3-methyl-1H-1,2,4-triazol-5-yl]methyl}-3-{[1-(3-fluoroquinolin-7-yl)-1H-1,2,4-triazol-5-yl]methyl}urea]	83	74
CCc1nc(CNC(=O)NCc2ncnn2-c2ccc3nccnc3c2)n(-c2ccc(Cl)c(F)c2)n1 [Compound 49, 1-{[1-(4-chloro-3-fluorophenyl)-3-ethyl-1H-1,2,4-triazol-5-yl]methyl}-3-{[1-(quinoxalin-6-yl)-1H-1,2,4-triazol-5-yl]methyl}urea]	150	79
COC(=O)c1cc(-n2ncnc2CNC(=O)NCc2nc(C)nn2-c2ccc(Cl)c(F)c2)ccc1Cl [Compound 50, methyl 2-chloro-5-(5-{[({[1-(4-chloro-3-fluorophenyl)-3-methyl-1H-1,2,4-triazol-5-yl]methyl}carbamoyl)amino]methyl}-1H-1,2,4-triazol-1-yl)benzoate]	32	64
Cc1nc(CNC(=O)NCc2ncnn2-c2ccc3c(cnn3C)c2)n(-c2ccc(Cl)c(F)c2)n1 [Compound 51, 1-{[1-(4-chloro-3-fluorophenyl)-3-methyl-1H-1,2,4-triazol-5-yl]methyl}-3-{[1-(1-methyl-1H-indazol-5-yl)-1H-1,2,4-triazol-5-yl]methyl}urea]	66	75
